Experimental data as given in patent US9085642B2, “Peptide inhibiting rankl-rank interaction and the use thereof” (RESEARCH & BUSINESS FOUNDATION SUNGKYUNKWAN UNIVERSITY, priority 2013, dated 2015).
Entries after “also recorded” stand apart in the source; their conditions may differ. Bridge positions count the residues as written; N and C are the ends. Ends that are not written are not given here.

Test system: osteoclast precursors
Test: Osteoclast differentiation by RANKL, TRAP assay and count of TRAP-positive multinucleated cells
Type: cell-based, rat
Conditions: RANKL-induced differentiation, peptides treated by concentrations, TRAP assay, FIGS. 6B and 7
Experimental: That is, osteoclast precursors of rats were extracted from tibia and the femoral region of 5 to 8-week male rats, and purified. The osteoclast precursors were cultured in α-MEM containing 30 ng/ml of M-CSF and 10% FBS in 96-well plates (1×10^5/ml, 200 μl/well). The cells were cultured at 37° C. in a wet atmosphere containing 5% CO2. Differentiation of the osteoclast precursors were measured by a value of tartrate-resistant acid phosphatase (TRAP) activity in vitro. The TRAP staining assay was performed using a matrix Naphthol AS phosphate in 100 mM sodium acetate (pH 5.2). TRAP-positive multinucleated cells were calculated as osteoclast-like multinucleated cells using a microscope, and the assay described above were repeated three times to obtain statistical data.
In the condition of differentiating osteoclasts by the RANKL, 5 peptides (L3-3, L3-3S, L3-3N, L3-3A, and L3-3B) manufactured in Example 5 were treated by concentrations to observe a degree of inhibition, and the results are shown in FIGS. 6 and 7.

## Ser-Asp-Cys-Glu-Cys-Ser-Arg-Arg (SDCECSRR; disulfide 3-5) [L3-3B]
  inhibitory effect on osteoclast differentiation: better effects than conventionally disclosed peptides (L3-3 and L3-3S); also recorded: extraordinarily higher inhibitory effect than L3-3A
